# Earlier results as cited in patent publication US10188773B2, “Compositions and devices of poly-4-hydroxybutyrate” (Tepha, Inc., priority 2013, dated 2019).
# Conditions: metabolism in the body; Nelson et al. 1981, Sendelbeck et al. 1985
structure (smiles),measurement,value
"O=C(O)CCCO [4HB, 4-hydroxybutyric acid]",half-life,approximately 27 minutes
